# Read-outs that look alike come from different tables or passages of the source.
# Type: in vivo, male Swiss albino mice
# Conditions: for Analgesic (agonist) activity, in words: phenylquinone writhing, mice; for Analgesic action, inhibition action on phenylquinone writhing, % inhibition / Analgesic action, inhibition action on phenylquinone writhing: dose giving 50 % inhibition: subcutaneous; for Analgesic action, inhibition action on phenylquinone writhing: dose giving 50 % inhibition: 30 min before phenyl-p-benzoquinone, dose with 50 % inhibition
# Experimental: The percent change is calculated according to the following equation: % change=100- (no. of writhes in treated group/no. of writhes in control group)×100.
# [1] = at the dose listed for the substance under E1
SMILES,"Analgesic (agonist) activity, in words","Analgesic action, inhibition action on phenylquinone writhing, % inhibition (dose 0.20 mg/kg)","Analgesic action, inhibition action on phenylquinone writhing: dose giving 50 % inhibition","Analgesic action, inhibition action on phenylquinone writhing, % inhibition [1]","Analgesic action, inhibition action on phenylquinone writhing, % inhibition (dose 2.0 mg/kg (Table 3))"
"Nc1ccc(S(=O)(=O)N=C2CCCCN2CCc2ccccc2)cc1 [Compound W-16, 1-Phenylethylpiperidylidene-2-(4-aminophenyl)sulfonamide]","active analgesics, being comparable to morphine sulfate",56%,–,–,–
"Nc1ccc(S(=O)(=O)N=C2CCCCN2CC2CCC2)cc1 [Compound W-24, 1-Cyclobutylmethylpiperidylidene-2-(4-aminophenyl)sulfonamide]",–,61%,–,–,–
"CN1CCCCC1=NS(=O)(=O)c1ccc(N)cc1 [Compound W-9, 1-Methylpiperidylidene-2-(4-aminophenyl)sulfonamide]","active analgesics, being comparable to morphine sulfate",–,0.007 mg/kg,50%,–
"CN1CCCCC1=NC#N [Compound W-13, 1-Methylpiperidylidene-2-cyanamide]",–,–,6.0 mg/kg,50%,–
"CN1CCCCC1=NS(=O)(=O)c1ccccc1 [Compound W-2, 1-Methylpiperidylidene-2-benzenesulfonamide]",–,–,68.0 mg/kg,50%,–
"C/C=C/N1CCCCC1=NS(=O)(=O)c1ccc(Cl)cc1 [Compound W-32, E-1-(1-Propenyl)piperidylidene-2-(4-chlorophenyl)sulfonamide]",–,–,0.013 mg/kg,50%,–
"CN1CCCC(Br)C1=NC#N (racemic) [Compound 0-1, 3-Bromo-1-methylpiperidylidene-2-cyanamide]",–,–,0.7 mg/kg,50%,–
"CN1CCCCC1=NS(=O)(=O)c1ccc([N+](=O)[O-])cc1 [Compound W-6, 1-Methylpiperidylidene-2-(4-nitrophenyl)sulfonamide]","active analgesics, being comparable to morphine sulfate",–,0.0028 mg/kg,50%,–
"CN1CCCCC1=NS(=O)(=O)c1cccc([N+](=O)[O-])c1 [Compound W-7, 1-Methylpiperidylidene-2-(3-nitrophenyl)sulfonamide]","active analgesics, being comparable to morphine sulfate",–,0.0028 mg/kg,50%,–
"CCCN1CCCCC1=NS(=O)(=O)c1cccnc1 [Compound W-28, 1-n-Propylpiperidylidene-2-(3-pyridyl)sulfonamide]",–,–,–,–,82%
"CN1CCCCC1=NS(=O)(=O)c1ccccc1N [Compound W-11, 1-Methylpiperidylidene-2-(2-aminophenyl)sulfonamide]","active analgesics, being comparable to morphine sulfate",–,0.00024 mg/kg,50%,–
"Nc1ccc(S(=O)(=O)N=C2CCCCN2CC2CC2)cc1 [Compound W-21, 1-Cyclopropylmethylpiperidylidene-2-(4-aminophenyl)sulfonamide]",–,–,–,–,49%
"O=S(=O)(N=C1CCCCN1CCc1ccccc1)c1ccc(Cl)cc1 [Compound W-15, 1-Phenylethylpiperidylidene-2-(4-chlorophenyl)sulfonamide]","active analgesics, being comparable to morphine sulfate",–,0.007 mg/kg,50%,–
"CCCN1CCCCC1=NS(=O)(=O)c1ccc(Cl)cc1 [Compound W-26, 1-n-Propylpiperidylidene-2-(4-chlorophenyl)sulfonamide]",–,–,1.4 mg/kg,50%,–
"CN1CCCCC1=NS(=O)(=O)c1cccnc1 [Compound W-14, 1-Methylpiperidylidene-2-(3-pyridyl)sulfonamide]","active analgesics, being comparable to morphine sulfate",–,0.00038 mg/kg,50%,–
"O=S(=O)(N=C1CCCCN1CC1CCC1)c1ccc(Cl)cc1 [Compound W-23, 1-Cyclobutylmethylpiperidylidene-2-(4-chlorophenyl)sulfonamide]",–,–,0.01 mg/kg,50%,–
"O=[N+]([O-])c1ccc(CCN2CCCCC2=NS(=O)(=O)c2ccc(Cl)cc2)cc1 [Compound W-18, 1-(4-Nitrophenylethyl)piperidylidene-2-(4-chlorophenyl)sulfonamide]",–,–,–,50%,–
"CC(=O)Oc1ccccc1C(=O)O [Aspirin (TM), reference compound]",–,–,50.0 mg/kg,50%,–
"CN1CCCCC1=NS(=O)(=O)c1ccccc1[N+](=O)[O-] [Compound W-8, 1-Methylpiperidylidene-2-(2-nitrophenyl)sulfonamide]","active analgesics, being comparable to morphine sulfate",–,0.0018 mg/kg,50%,–
"O=S(=O)(N=C1CCCCN1CC1CCC1)c1cccnc1 [Compound W-25, 1-Cyclobutylmethylpiperidylidene-2-(3-pyridyl)sulfonamide]",–,69%,–,–,–
"CN1CCCCC1=NS(C)(=O)=O [Compound W-1, 1-Methylpiperidylidene-2-methanesulfonamide]",–,–,108.0 mg/kg,50%,–
"COc1ccc(S(=O)(=O)N=C2CCCCN2C)cc1 [Compound W-4, 1-Methylpiperidylidene-2-(4-methoxyphenyl)sulfonamide]","active analgesics, being comparable to morphine sulfate",–,0.002 mg/kg,50%,–
"CC(C)CN1CCCCC1=NS(=O)(=O)c1ccc(N)cc1 [Compound W-30, 1-Isobutylpiperidylidene-2-(4-aminophenyl)sulfonamide]",–,–,–,–,59%
"Cc1ccc(S(=O)(=O)N=C2CCCCN2C)cc1 [Compound W-5, 1-Methylpiperidylidene-2-(4-methylphenyl)sulfonamide]",–,–,2.4 mg/kg,50%,–
"CC(=O)Nc1ccc(S(=O)(=O)N=C2CCCCN2C)cc1 [Compound W-12, 1-Methylpiperidylidene-2-(4-acetamidophenyl)sulfonamide]",–,–,1.2 mg/kg,50%,–
